Data taken from patent US20250197425A1, “2,6,9-TRISUBSTITUTED PURINES” (ASTRAZENECA AB, priority 2022, published 2025).
≈ marks a conversion by molar mass, not a printed value. Read-outs that look alike come from different tables or passages of the source.

Legend:
[1] = biological target: CDK2:CCNE1 (Homo sapiens (Human), UniProt P24941); assay: NanoBRET assay in MCF-7 cells, CDK2; assay type: cell-based; details: transfected MCF-7 cells, 2 hours, n = 1 or average
Experimental: Compounds were tested in breast cancer cell line MCF-7 to assess inhibition of CDK1, CDK2, and CDK4 activity. […] The next day media were evacuated from the wells using the Bluewasher centrifugal plate washer (Bluecatbio) and 10 μL/well phenol red free OptiMEM was then added using a Multidrop Combi. […] Immediately after compound addition, a Tecan HP300 dispensor was used to dispense the relevant NanoBRET™ tracer to the CDK1 wells (12.5 nl, 400 μM, NanoBRET™ TE Tracer K-9), the CDK2 wells (12.5 nl, 200 μM, NanoBRET™ TE Tracer K-9), and the CDK4 wells (8 nl, 100 μM, NanoBRET™ TE Tracer K-7) and the plates were incubated for 2 hours at 37° C. and 5% CO2. […] The plates were incubated in subdued lighting for 10 minutes and then read on a Pherastar FS plate reader (BMG Technologies) using a NanoBRET™ filter module (460±80 nm/610 nm-LP). The ratio values were normalized to controls and the IC50 values of test compounds determined using Genedata Screener software.

[2] = biological target: CDK1:CCNB1 (Homo sapiens (Human), UniProt P06493); assay: NanoBRET assay in MCF-7 cells, CDK1; assay type: cell-based; details: NanoBRET, transfected MCF-7 cells, 2 hours; n = 1 or average; read-out: CDK1 IC50
CDK1:CCNB1, sequence (P06493 whole entry): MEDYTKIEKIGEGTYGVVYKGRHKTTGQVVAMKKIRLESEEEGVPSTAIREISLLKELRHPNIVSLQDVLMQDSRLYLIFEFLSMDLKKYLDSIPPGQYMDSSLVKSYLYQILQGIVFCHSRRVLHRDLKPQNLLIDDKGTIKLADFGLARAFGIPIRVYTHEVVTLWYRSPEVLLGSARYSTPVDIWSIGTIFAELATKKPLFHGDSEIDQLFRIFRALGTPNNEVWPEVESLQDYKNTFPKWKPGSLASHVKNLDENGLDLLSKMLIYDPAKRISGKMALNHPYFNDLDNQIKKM
CDK1:CCNB1, sequence (P14635 whole entry partner): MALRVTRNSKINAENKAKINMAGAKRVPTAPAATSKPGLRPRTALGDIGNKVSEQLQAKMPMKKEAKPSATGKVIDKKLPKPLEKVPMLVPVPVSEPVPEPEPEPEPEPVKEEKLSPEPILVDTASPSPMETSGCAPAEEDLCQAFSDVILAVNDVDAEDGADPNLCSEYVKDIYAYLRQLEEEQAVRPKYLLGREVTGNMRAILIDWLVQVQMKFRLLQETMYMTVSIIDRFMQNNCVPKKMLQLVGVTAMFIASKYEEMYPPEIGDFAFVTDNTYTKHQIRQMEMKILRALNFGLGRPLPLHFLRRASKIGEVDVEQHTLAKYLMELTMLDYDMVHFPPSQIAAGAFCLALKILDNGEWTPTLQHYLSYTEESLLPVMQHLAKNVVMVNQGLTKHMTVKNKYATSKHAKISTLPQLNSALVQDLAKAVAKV
Experimental: (§1) Compounds were tested in breast cancer cell line MCF-7 to assess inhibition of CDK1, CDK2, and CDK4 activity. MCF-7 cells transiently transfected with CDK1:CCNB1, CDK2:CCNE1, or CDK4:CCND1 were harvested at a density of 1E5 cells/mL in complete media, seeded 20 μL/well into 384-well Greiner 784080 plates using a Multidrop Combi, and incubated overnight at 37° C. and 5% CO2. The next day media were evacuated from the wells using the Bluewasher centrifugal plate washer (Bluecatbio) and 10 μL/well phenol red free OptiMEM was then added using a Multidrop Combi. […] Immediately after compound addition, a Tecan HP300 dispensor was used to dispense the relevant NanoBRET™ tracer to the CDK1 wells (12.5 nl, 400 μM, NanoBRET™ TE Tracer K-9), the CDK2 wells (12.5 nl, 200 μM, NanoBRET™ TE Tracer K-9), and the CDK4 wells (8 nl, 100 μM, NanoBRET™ TE Tracer K-7) and the plates were incubated for 2 hours at 37° C. and 5% CO2. The plates were allowed to cool for 10 minutes at room temperature and 5 μL/well of TE Nano-Glo®Substrate/Inhibitor at 2.4 μM and 1:500 respectively (N2162 Promega) was added. The plates were incubated in subdued lighting for 10 minutes and then read on a Pherastar FS plate reader (BMG Technologies) using a NanoBRET™ filter module (460±80 nm/610 nm-LP). The ratio values were normalized to controls and the IC50 values of test compounds determined using Genedata Screener software.

[3] = biological target: CDK4:CCND1 (Homo sapiens (Human), UniProt P11802); assay: NanoBRET assay in MCF-7 cells, CDK4; assay type: cell-based; details: NanoBRET, transfected MCF-7 cells, 2 hours; n = 1 or average; read-out: CDK4 IC50
CDK4:CCND1, sequence (P11802 whole entry): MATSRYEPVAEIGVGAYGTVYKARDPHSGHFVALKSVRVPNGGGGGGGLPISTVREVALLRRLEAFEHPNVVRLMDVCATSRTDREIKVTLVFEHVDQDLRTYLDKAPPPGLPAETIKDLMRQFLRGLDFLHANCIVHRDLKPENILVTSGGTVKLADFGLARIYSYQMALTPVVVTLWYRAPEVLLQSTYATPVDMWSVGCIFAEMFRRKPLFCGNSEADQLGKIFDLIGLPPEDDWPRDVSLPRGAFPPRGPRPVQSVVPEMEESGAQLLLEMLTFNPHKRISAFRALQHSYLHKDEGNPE
CDK4:CCND1, sequence (P24385 whole entry partner): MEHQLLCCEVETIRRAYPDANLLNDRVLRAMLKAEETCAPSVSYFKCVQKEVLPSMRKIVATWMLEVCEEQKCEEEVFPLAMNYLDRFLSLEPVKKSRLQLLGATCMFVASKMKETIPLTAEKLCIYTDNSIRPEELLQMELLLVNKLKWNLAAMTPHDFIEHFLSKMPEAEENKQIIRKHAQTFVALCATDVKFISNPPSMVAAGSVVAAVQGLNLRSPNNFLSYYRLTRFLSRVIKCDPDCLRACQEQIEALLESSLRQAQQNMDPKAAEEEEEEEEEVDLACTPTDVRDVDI
Experimental: as §1

[4] = system: NPM phosphorylation (Thr199, CDK2-cyclin E complex); assay: NPM phosphorylation imaging assay in MCF-7 cells; assay type: cell-based; details: 4N DNA cells
Experimental: Compounds were tested to assess the effects of CDK2 inhibition in a cellular context. […] During the cell cycle, the CDK2-cyclin E complex phosphorylates NPM at Thr199 which is a prerequisite step for initiation of centrosome duplication.
The cells were fixed by addition of 40 μL/well of 8% paraformaldehyde and incubated at room temperature for 10 minutes. The plates were washed three times with 50 μL/well PBS using a Biotek EL406 plate washer and then permeabilized for 10 minutes at room temperature in 0.3% Triton X100 in PBS. After washing as before, the plates were blocked using 30 μL/well of 2% BSA (w/v) in PBS-T for at least 30 minutes at room temperature. […] Cells containing 4N DNA were selected using the Hoechst staining. Phospho-NPM levels were normalized to controls and the IC50 values of test compounds determined using Genedata Screener software.

[5] = system: POLR2A Ser2 phosphorylation (CDK9); assay: POLR2A Ser2 phosphorylation imaging assay in MCF-7 cells; assay type: cell-based; details: MCF-7 cells, 2 hours, read-out: POLR2A Ser2 phosphorylation IC50
Experimental: Compounds were tested to assess their effect on CDK9 activity in a cellular context. […] During the cell cycle, CDK9 is a component of a multiprotein complex that phosphorylates POLR2A Ser2 which results in transcription elongation.
[…] were fixed by addition of 40 μL/well of 8% paraformaldehyde and incubated for 10 minutes at room temperature. The plates were washed three times with 50 μL/well PBS using a Biotek EL406 plate washer and then permeabilized for 10 minutes at room temperature in 0.3% Triton X100 in PBS. After washing as before, the plates were blocked using 30 μL/well of 2% BSA (w/v) in PBS-T for over 30 minutes at room temperature. […] After washing in PBS as before, leaving each well in 40 μL of PBS, the plates were sealed and imaged on a Cell Insight imaging system (Thermo) with a 10× objective and 2 fields of view per well. POLR2A Ser2levels were normalized to controls and the IC50 values of test compounds determined using Genedata Screener software.

[6] = system: MCF-7 cells; assay: Cellular proliferation EdU assay, MCF-7; assay type: cell-based; details: EdU assay, two days, read-out: MCF-7 IC50
Experimental: (§2) Compounds were tested to assess inhibition of cellular proliferation in the breast cancer cell line MCF-7 and the CCNE1-amplified ovarian cell line OVCAR3.
(§3) MCF-7 and OVCAR3 cells in RPMI supplemented with 10% Fetal bovine serum were seeded into 384-well plates (Greiner, Kremsmunster, Austria; 781091), 30 μL/well, using a WellMate. The MCF7 and OVCAR3 cells were seeded at 800 and 1200 cells/well, respectively. Test compounds were added to the wells using an Echo 555 liquid handler and the plates were placed in incubator maintained at 37° C. and 5% CO2 and incubated for two days. On Day 2, an EdU assay was performed following the manufacturer's protocol (Thermo Fisher, C10351). The cells were read on an Acumen eX3 instrument. The IC50 values of test compounds were determined in Genedata by assessing the ratio of signal intensity at 488 nm to the area of signal at 405 nm.

[7] = system: OVCAR3 cells; assay: Cellular proliferation EdU assay, OVCAR3; assay type: cell-based, human; details: EdU assay, two days, read-out: OVCAR3 IC50
Experimental: as §2, §3

[8] = CLint assessment in human liver microsomes (HLM); assay type: in vitro ADME; details: 1 μM
Experimental: After a preincubation with NADPH for 8 minutes, reactions were initiated through the addition of the test compound (final volume 250 μl) and incubated at 37° C. in a water bath for 30 minutes. […] Samples were shaken at 800 rpm for 2 minutes and centrifuged at 4000 rpm for 20 minutes at 4° C. to pellet precipitated protein. The supernatant fraction was diluted 1:5 with deionized water, shaken at 1000 rpm for 2 minutes, and further diluted 1:1 with deionized water. Samples were analyzed by LC-MS/MS. The t1/2 and the CLint of the compounds incubated in the LM, HLM, and HμREL assays as described above were calculated according to the following equations: […] where V (μl/×10^6 cells or mg protein) is the incubation volume (μl) divided by the number of cells (×10^6) or microsomal protein content (mg) in the incubation.

[9] = Aqueous thermodynamic solubility, shake-flask; assay type: physicochemical; details: phosphate buffer 0.1 M, pH 7.4, 24 hours
Experimental: The DMSO was evaporated and the dried compounds were equilibrated in glass vials in aqueous phosphate buffer (0.1 M, pH 7.4) for 24 hours at 25° C. under constant stirring. The portion with the dissolved compound was then separated from the remainder through a double centrifugation with a tip wash in between to ensure that no residues of the dried compound were interfering. The solutions were diluted with purified water before quantification using UPLC/MS/MS.

[10] = aqueous phosphate buffer, 25 °C, pH 7.4, aqueous buffer, thermodynamic from solid

Row | IC50 [1] [nM] | IC50 [2] [nM] | IC50 [3] [nM] | IC50 ([4]; Homo sapiens, MCF7, 2 h) [nM] | IC50 ([5]; Homo sapiens, MCF7, 2 h) [nM] | IC50 ([6]; Homo sapiens, MCF7, 48 h) [nM] | IC50 ([7]; Homo sapiens, OVCAR-3, 48 h) [nM] | HLM CLint [8] [µL/min/mg] | solubility at 24 h [9, 10] [µM] | IC50 ([4]; 2 hours) [nM] | IC50 [6] [nM] | IC50 [7] [nM] | solubility at 24 h ([9]; 25° C.) [µM] | IC50 [5] [nM] | Structure (SMILES)
1 | 17 | 671 | 1700 | 137 | > 30000 | 874 | 431 | 202 | 51.9 (≈ 23.5 µg/mL) | – | – | – | – | – | CCNS(=O)(=O)N1CC[C@H](Nc2nc(N[C@@H](CO)CC3CC3)nc3c2ncn3CC)C1 (relative stereo) [Example 58, (S)-3-((2-(((R*)-1-cyclopropyl-3-hydroxypropan-2-yl)amino)-9-ethyl-9H-purin-6-yl)amino)-N-ethylpyrrolidine-1-sulfonamide]
2 | 37 | 1690 | 11400 | 337 | > 30000 | 1780 | 950 | 35.9 | > 1000 | – | – | – | – | – | CCNS(=O)(=O)N1CC[C@H](Nc2nc(N[C@@H](C)C(C)(C)O)nc3c2ncn3CC)C1 (relative stereo) [Example 59, (S)—N-ethyl-3-((9-ethyl-2-(((R*)-3-hydroxy-3-methylbutan-2-yl)-amino)-9H-purin-6-yl)amino)pyrrolidine-1-sulfonamide]
3 | 100 | 2210 | 20200 | 432 | > 30000 | 1060 | 486 | 13.4 | > 1000 | – | – | – | – | – | CC[C@H](Nc1nc(N[C@H]2CCN(S(N)(=O)=O)C2)c2ncn(CC)c2n1)[C@@H](C)O [Example 9, (S)-3-((9-ethyl-2-(((2R,3S)-2-hydroxypentan-3-yl)amino)-9H-purin-6-yl)amino)pyrrolidine-1-sulfonamide]

Further lines, the molecule ahead of its results:

Row | Structure (SMILES) | IC50 [1] [nM] | IC50 [2] [nM] | IC50 [3] [nM] | IC50 ([4]; Homo sapiens, MCF7, 2 h) [nM] | IC50 ([5]; Homo sapiens, MCF7, 2 h) [nM] | IC50 ([6]; Homo sapiens, MCF7, 48 h) [nM] | IC50 ([7]; Homo sapiens, OVCAR-3, 48 h) [nM] | HLM CLint [8] [µL/min/mg] | solubility at 24 h [9, 10] [µM] | IC50 ([4]; 2 hours) [nM] | IC50 [6] [nM] | IC50 [7] [nM] | solubility at 24 h ([9]; 25° C.) [µM] | IC50 [5] [nM]
4 | CCn1cnc2c(N[C@H]3CCN(S(=O)(=O)NC)C3)nc(N[C@@H](C)[C@@H](O)C(F)(F)F)nc21 (single isomer, unassigned) [Example 49, (S)-3-((9-ethyl-2-(((2R*,3S*)-4,4,4-trifluoro-3-hydroxybutan-2-yl)amino)-9H-purin-6-yl)amino)-N-methylpyrrolidine-1-sulfonamide] | 13 | 907 | 4400 | – | 20200 | – | – | 19.5 | – | 144 | 775 | 383 | 120 (≈ 56 µg/mL) | –
5 | CCn1cnc2c(N[C@H]3CCN(S(=O)(=O)NC)C3)nc(N[C@@H](C)[C@@H](O)C(F)(F)F)nc21 (single isomer, unassigned) [Example 50, (S)-3-((9-ethyl-2-(((2R*,3S*)-4,4,4-trifluoro-3-hydroxybutan-2-yl)amino)-9H-purin-6-yl)amino)-N-methylpyrrolidine-1-sulfonamide] | 64 | 2350 | 14200 | – | – | – | – | 36.3 | – | 412 | 2760 | 1220 | 23.1 (≈ 10.8 µg/mL) | > 30000
6 | CCn1cnc2c(N[C@H]3CCN(S(=O)(=O)NC)C3)nc(-c3cccc4c3CNC4=O)nc21 [Example 1, (S)-3-((9-ethyl-2-(1-oxoisoindolin-4-yl)-9H-purin-6-yl)amino)-N-methylpyrrolidine-1-sulfonamide] | 17 | 236 | 11900 | 551 | 13300 | 2000 | 270 | >300 | 7 (≈ 3.2 µg/mL) | – | – | – | – | –
7 | CCn1cnc2c(N[C@H]3CCN(S(=O)(=O)NC)C3)nc(-c3cccc4c3CC[C@H]4O)nc21 [Example 2, (S)-3-((9-ethyl-2-((R)-1-hydroxy-2,3-dihydro-1H-inden-4-yl)-9H-purin-6-yl)amino)-N-methylpyrrolidine-1-sulfonamide] | 29 | 904 | 17800 | 301 | 15400 | 1360 | 404 | 61.6 | 55 (≈ 25.2 µg/mL) | – | – | – | – | –
8 | CC[C@H](Nc1nc(N[C@H]2CCN(S(N)(=O)=O)C2)c2ncn(CC)c2n1)C(C)=O [Example 10, (S)-3-((9-ethyl-2-(((S)-2-oxopentan-3-yl)amino)-9H-purin-6-yl)amino)pyrrolidine-1-sulfonamide] | 100 | 4620 | > 23100 | 481 | > 30000 | 2940 | 1300 | 17.6 | > 904 | – | – | – | – | –
